{"source": "paper PMC2709206", "about": "(The Journal of neuroscience : the official journal of the …, 2008)", "key": {"mouse TRPA1 [1]": {"biological_target": "T1, mouse TRPA1 (Mus musculus, UniProt Q8BLA8)", "T1 sequence (Q8BLA8 whole entry)": "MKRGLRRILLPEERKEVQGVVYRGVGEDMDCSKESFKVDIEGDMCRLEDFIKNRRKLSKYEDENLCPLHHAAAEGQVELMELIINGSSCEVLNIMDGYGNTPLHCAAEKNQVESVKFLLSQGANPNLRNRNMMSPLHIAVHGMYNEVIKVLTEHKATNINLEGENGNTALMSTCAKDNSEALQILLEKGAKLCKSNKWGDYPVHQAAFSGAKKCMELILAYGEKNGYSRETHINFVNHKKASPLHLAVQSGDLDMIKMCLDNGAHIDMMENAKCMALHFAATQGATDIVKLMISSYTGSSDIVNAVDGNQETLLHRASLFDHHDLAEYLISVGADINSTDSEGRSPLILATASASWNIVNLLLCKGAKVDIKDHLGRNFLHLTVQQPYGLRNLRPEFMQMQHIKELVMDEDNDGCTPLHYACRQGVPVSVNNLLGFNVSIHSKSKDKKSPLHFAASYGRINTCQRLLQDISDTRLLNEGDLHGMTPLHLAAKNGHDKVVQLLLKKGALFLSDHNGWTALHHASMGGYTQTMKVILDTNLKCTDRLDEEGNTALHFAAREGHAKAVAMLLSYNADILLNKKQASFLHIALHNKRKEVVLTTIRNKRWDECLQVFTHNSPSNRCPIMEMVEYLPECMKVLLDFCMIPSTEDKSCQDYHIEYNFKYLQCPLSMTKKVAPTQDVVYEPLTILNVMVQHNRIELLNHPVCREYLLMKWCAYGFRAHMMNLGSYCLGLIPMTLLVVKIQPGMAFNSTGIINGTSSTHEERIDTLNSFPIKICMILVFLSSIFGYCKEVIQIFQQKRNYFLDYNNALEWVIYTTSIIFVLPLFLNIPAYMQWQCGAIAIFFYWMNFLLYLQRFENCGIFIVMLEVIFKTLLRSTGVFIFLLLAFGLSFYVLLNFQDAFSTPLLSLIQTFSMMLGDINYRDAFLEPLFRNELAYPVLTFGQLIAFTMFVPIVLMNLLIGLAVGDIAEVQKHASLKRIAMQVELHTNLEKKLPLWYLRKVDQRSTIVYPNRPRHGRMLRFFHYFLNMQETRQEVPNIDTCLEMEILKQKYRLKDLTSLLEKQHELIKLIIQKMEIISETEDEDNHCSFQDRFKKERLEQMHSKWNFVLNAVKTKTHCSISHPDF", "assay": "[Ca2+]i increase in TRPA1-expressing CHO cells", "assay_type": "cell-based", "settings": "for [Ca2+]i-increase in TRPA1 CHO cells: at concentrations <50 μM, data not shown; for TRPA1 activation: Rose Bengal at 5 μM, supplemental Fig. 2"}, "[2]": {"system": "DRG neurons from trpa1+/+ mice", "assay": "Calcium imaging of DRG neurons from trpa1+/+ mice", "assay_type": "cell-based", "settings": "trpa1+/+ mouse DRG neurons; percentage of response to 50 mM KCl"}, "[3]": {"system": "DRG neurons from trpa1-/- mice", "assay": "Calcium imaging of DRG neurons from trpa1-/- mice", "assay_type": "cell-based", "settings": "trpa1-/- mouse DRG neurons; percentage of response to 50 mM KCl"}, "mouse TRPA1 [4]": {"biological_target": "T1, mouse TRPA1", "assay": "Voltage-clamp electrophysiology of TRPA1 CHO cells", "assay_type": "cell-based", "settings": "for membrane current in TRPA1 CHO cells: whole-cell, holding potential -60 mV"}, "rat DRG neurons [5]": {"system": "rat DRG neurons", "assay": "Calcium imaging of rat DRG neurons", "assay_type": "cell-based", "settings": "for capsaicin-sensitive DRG neurons that responded: 4-HNE 30 μM, 4-ONE 3 μM"}, "rat DRG neurons [6]": {"system": "rat DRG neurons", "settings": "ref Andersson et al., 2007; cited from earlier work"}, "rat nodose neurons": {"system": "rat nodose neurons", "assay": "Calcium imaging of rat nodose ganglion neurons", "assay_type": "cell-based", "settings": "for percentage of rat nodose neurons responding with [Ca2+]i increase: positive = at least 15% of response to 50 mM KCl, H2O2 5 mM, AITC 50 μM"}, "human TRPV1": {"biological_target": "human TRPV1 (Homo sapiens, UniProt Q8NER1)", "sequence (Q8NER1 whole entry)": "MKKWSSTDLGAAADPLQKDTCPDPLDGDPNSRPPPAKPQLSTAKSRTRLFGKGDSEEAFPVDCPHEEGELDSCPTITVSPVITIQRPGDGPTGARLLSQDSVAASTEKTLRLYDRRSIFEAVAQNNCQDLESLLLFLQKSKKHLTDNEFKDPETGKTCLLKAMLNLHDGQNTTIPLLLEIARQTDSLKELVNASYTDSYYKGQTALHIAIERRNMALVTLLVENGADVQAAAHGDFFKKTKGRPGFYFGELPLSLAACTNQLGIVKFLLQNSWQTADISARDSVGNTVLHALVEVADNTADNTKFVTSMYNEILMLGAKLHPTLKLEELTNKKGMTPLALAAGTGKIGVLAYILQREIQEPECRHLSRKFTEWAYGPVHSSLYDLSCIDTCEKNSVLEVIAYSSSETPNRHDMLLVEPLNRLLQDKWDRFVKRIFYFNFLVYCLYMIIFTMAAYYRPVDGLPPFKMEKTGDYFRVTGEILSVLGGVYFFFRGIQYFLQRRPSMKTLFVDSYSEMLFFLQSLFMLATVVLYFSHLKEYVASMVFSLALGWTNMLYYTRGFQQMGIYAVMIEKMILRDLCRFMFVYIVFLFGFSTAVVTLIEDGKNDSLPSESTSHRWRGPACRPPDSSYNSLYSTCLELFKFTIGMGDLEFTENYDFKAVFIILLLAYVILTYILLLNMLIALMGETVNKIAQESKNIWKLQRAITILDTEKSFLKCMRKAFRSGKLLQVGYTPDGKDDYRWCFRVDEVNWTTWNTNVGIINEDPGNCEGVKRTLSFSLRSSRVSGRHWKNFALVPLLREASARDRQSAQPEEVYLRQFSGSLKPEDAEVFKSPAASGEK", "assay": "Responses in CHO cells expressing TRPV1", "assay_type": "cell-based", "settings": "data not shown"}, "wild-type mice": {"system": "wild-type mice", "assay": "Nocifensive/pain behaviour after intraplantar injection, wild-type mice", "assay_type": "in vivo, mouse", "settings": "intraplantar 2.2 μmol H2O2 or 32 nmol 15d-PGJ2 in 25 μl, 3 min"}, "untransfected CHO cells": {"system": "untransfected CHO cells", "assay": "Responses", "assay_type": "cell-based, Chinese hamster", "settings": "data not shown"}, "trpa1-/- mice": {"system": "trpa1-/- mice", "assay": "Nocifensive/pain behaviour after intraplantar injection, trpa1-/- mice", "assay_type": "in vivo, mouse", "settings": "intraplantar 2.2 μmol H2O2 or 32 nmol 15d-PGJ2 in 25 μl, 3 min, compared with wild-type"}, "[7]": {"system": "DRG neurons from trpv1-/- mice", "assay": "Calcium imaging of DRG neurons from trpv1-/- mice", "assay_type": "cell-based, mouse", "settings": "trpv1-/- mice (113 of 355)"}, "DRG neurons": {"system": "DRG neurons", "assay": "Whole-cell voltage clamp of DRG neurons", "assay_type": "cell-based, rat", "settings": "voltage ramp"}, "[8]": {"system": "DRG neurons from wild-type mice", "assay": "Calcium imaging of DRG neurons from wild-type mice", "assay_type": "cell-based, mouse", "settings": "wild-type mice (134 of 445)"}}, "note": "Values joined by “and” are separate entries in the source; they are usually repeats but may differ in a detail not shown here. Equal values may be shown once. Read-outs that look alike come from different tables or passages of the source."}
{"smiles": "CCCCC/C=C\\C=C1\\C(=O)CC[C@@H]1C/C=C\\CCCC(=O)O", "note": "[9,10-dihydro-15d-PGJ2]", "values": [{"measurement": "[Ca2+]i-increase in TRPA1 CHO cells", "setting": "mouse TRPA1 [1]", "value": "failed to elicit any significant [Ca^2+]i-increase"}]}
{"smiles": "Cc1ccc(S(=O)(=O)NCl)cc1", "note": "[chloramine T]", "values": [{"measurement": "TRPA1 activation", "setting": "mouse TRPA1 [1]", "value": "activated"}]}
{"smiles": "CCCCCC(O)/C=C/C=O", "note": "(stereo not shown) [4-HNE, 4-hydroxynonenal]", "values": [{"measurement": "Response amplitude (% of K+)", "setting": "[2]", "value": 61, "unit": "%"}, {"measurement": "Response amplitude (% of K+)", "setting": "[3]", "value": 34, "unit": "%"}, {"measurement": "membrane current in TRPA1 CHO cells", "setting": "mouse TRPA1 [4]", "value": "evoked membrane currents"}, {"measurement": "capsaicin-sensitive DRG neurons that responded", "setting": "rat DRG neurons [5]", "value": "Approximately 50%"}]}
{"smiles": "O=C([O-])c1c(Cl)c(Cl)c(Cl)c(Cl)c1-c1c2cc(I)c(=O)c(I)c-2oc2c(I)c([O-])c(I)cc12.[Na+].[Na+]", "note": "[Rose Bengal]", "values": [{"measurement": "TRPA1 activation", "setting": "mouse TRPA1 [1]", "value": "activated"}]}
{"smiles": "CCCCCC(=O)C=CC=O", "note": "[4-ONE, 4-oxo-2-nonenal]", "values": [{"measurement": "Response amplitude (% of K+)", "setting": "[2]", "value": 89, "unit": "%"}, {"measurement": "EC50", "setting": "mouse TRPA1 [1]", "value": 1.9, "unit": "µM"}, {"measurement": "Response amplitude (% of K+)", "setting": "[3]", "value": 34, "unit": "%"}, {"measurement": "capsaicin-sensitive DRG neurons that responded", "setting": "rat DRG neurons [5]", "value": "Approximately 50%"}]}
{"smiles": "CC1CCC(C(C)C)C(O)C1", "note": "(stereo not shown) [menthol]", "values": [{"measurement": "percentage of sensitive DRG neurons in DRG cultures", "setting": "rat DRG neurons [6]", "value": "~ 8%"}]}
{"smiles": "C=CCN=C=S", "note": "[AITC, allyl isothiocyanate]", "values": [{"measurement": "Response amplitude (% of K+)", "setting": "[2]", "value": 86, "unit": "%"}, {"measurement": "percentage of rat nodose neurons responding with [Ca2+]i increase", "setting": "rat nodose neurons", "value": 54.0, "unit": "%"}, {"measurement": "Response amplitude (% of K+)", "setting": "[3]", "value": 21, "unit": "%"}]}
{"smiles": "CCCCCC=CC=C1C(=O)C=C[C@@H]1CC=CCCCC(=O)O", "note": "[15d-PGJ2, 15-deoxy-Δ^12,14-prostaglandin J2]", "values": [{"measurement": "[Ca2+]i increase / membrane currents in TRPV1 expressing CHO cells", "setting": "human TRPV1", "value": "had no effect"}, {"measurement": "Response amplitude (% of K+)", "setting": "[2]", "value": 63, "unit": "%"}, {"measurement": "nocifensive/pain-related behaviour", "setting": "wild-type mice", "value": "marked nocifensive behaviors"}, {"measurement": "[Ca2+]i increase / membrane currents in untransfected CHO cells", "setting": "untransfected CHO cells", "value": "had no effect"}, {"measurement": "nocifensive/pain-related behaviour", "setting": "trpa1-/- mice", "value": "greatly reduced or absent"}, {"measurement": "Response amplitude (% of K+)", "setting": "[3]", "value": 47, "unit": "%"}, {"measurement": "membrane current in TRPA1 CHO cells", "setting": "mouse TRPA1 [4]", "value": "evoked inward currents"}]}
{"smiles": "CCCCC[C@H](O)/C=C/[C@H]1C=CC(=O)[C@@H]1C/C=C\\CCCC(=O)O", "note": "[PGA2]", "values": [{"measurement": "[Ca2+]i-increase in TRPA1 CHO cells", "setting": "mouse TRPA1 [1]", "value": "failed to elicit any significant [Ca^2+]i-increase"}]}
{"smiles": "OO", "note": "[H2O2, hydrogen peroxide]", "values": [{"measurement": "proportion of sensitive DRG neurons", "setting": "[7]", "value": 31.8, "unit": "%"}, {"measurement": "Response amplitude (% of K+)", "setting": "[2]", "value": 70, "unit": "%"}, {"measurement": "nocifensive/pain-related behaviour", "setting": "wild-type mice", "value": "marked nocifensive behaviors"}, {"measurement": "reversal potential of evoked current", "setting": "DRG neurons", "value": -6, "unit": "mV"}, {"measurement": "currents in untransfected CHO cells", "setting": "untransfected CHO cells; concentrations up to 100 mM", "value": "failed to evoke currents"}, {"measurement": "proportion of sensitive DRG neurons", "setting": "[8]", "value": 30.1, "unit": "%"}, {"measurement": "percentage of rat nodose neurons responding with [Ca2+]i increase", "setting": "rat nodose neurons", "value": 49.8, "unit": "%"}, {"measurement": "capsaicin-sensitive nodose neurons that did not respond", "setting": "rat nodose neurons; rat nodose neurons, calcium imaging", "value": "~ 30%"}, {"measurement": "nocifensive/pain-related behaviour", "setting": "trpa1-/- mice", "value": "greatly reduced or absent"}, {"measurement": "reversal of [Ca2+]i response by dithiothreitol (DTT)", "setting": "mouse TRPA1 [1]; DTT 1 mM", "value": "reversed"}, {"measurement": "EC50 lower / potency increased in Fe2+-loaded vs untreated cells", "setting": "mouse TRPA1 [1]; TRPA1 CHO cells, after 90 s", "value": "~ 20 fold and 20 fold"}, {"measurement": "concentrations that activate TRPA1", "setting": "mouse TRPA1 [1]; extracellularly applied", "value": "50 to 100", "unit": "µM"}, {"measurement": "EC50", "setting": "mouse TRPA1 [1]; read-out: EC50, increase in [Ca2+]i in Fe2+-loaded cells, TRPA1 CHO cells preloaded with 100 μM FeSO4 for 1 h, after 90 s", "value": "53 ± 6", "unit": "µM"}, {"measurement": "EC50", "setting": "mouse TRPA1 [1]; read-out: EC50, increase in [Ca2+]i, TRPA1 CHO cells, after 90 s exposure", "value": "1200 ± 400", "unit": "µM"}, {"measurement": "EC50", "setting": "mouse TRPA1 [1]; read-out: EC50, increase in [Ca2+]i, TRPA1 CHO cells, after 600 s exposure (plateau)", "value": 230, "unit": "µM"}, {"measurement": "Response amplitude (% of K+)", "setting": "[3]", "value": 31, "unit": "%"}, {"measurement": "reversal potential of evoked current", "setting": "mouse TRPA1 [4]; TRPA1 CHO cells, voltage ramp, calcium-free solution", "value": "~0", "unit": "mV"}, {"measurement": "single-channel chord conductance", "setting": "mouse TRPA1 [4]; cell-attached patches, -100 to +100 mV", "value": "94 ± 3", "unit": "pS"}, {"measurement": "membrane current in TRPA1 CHO cells", "setting": "mouse TRPA1 [4]", "value": "evoked an inward current"}, {"measurement": "capsaicin-sensitive DRG neurons that did not respond", "setting": "rat DRG neurons [5]; rat DRG neurons, calcium imaging", "value": "~ 50%"}]}
